Measured values from ChEMBL document CHEMBL1201862, “PubChem BioAssay data set” (2004).
Activity calls are given as the source filed them.

Target: T1, Fatty acid synthase (Homo sapiens, UniProt P49327)
Assay: FAS thioesterase domain inhibitors, dose response, biochemical, endpoint fluorescence intensity, uHTS hits (AID 624327);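 further: fluorescence from hydrolysis of an O-methyl fluorescein acyl ester substrate by the enzyme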
Assay type: functional

T1 sequence (P49327 whole entry, the tested form may be a part): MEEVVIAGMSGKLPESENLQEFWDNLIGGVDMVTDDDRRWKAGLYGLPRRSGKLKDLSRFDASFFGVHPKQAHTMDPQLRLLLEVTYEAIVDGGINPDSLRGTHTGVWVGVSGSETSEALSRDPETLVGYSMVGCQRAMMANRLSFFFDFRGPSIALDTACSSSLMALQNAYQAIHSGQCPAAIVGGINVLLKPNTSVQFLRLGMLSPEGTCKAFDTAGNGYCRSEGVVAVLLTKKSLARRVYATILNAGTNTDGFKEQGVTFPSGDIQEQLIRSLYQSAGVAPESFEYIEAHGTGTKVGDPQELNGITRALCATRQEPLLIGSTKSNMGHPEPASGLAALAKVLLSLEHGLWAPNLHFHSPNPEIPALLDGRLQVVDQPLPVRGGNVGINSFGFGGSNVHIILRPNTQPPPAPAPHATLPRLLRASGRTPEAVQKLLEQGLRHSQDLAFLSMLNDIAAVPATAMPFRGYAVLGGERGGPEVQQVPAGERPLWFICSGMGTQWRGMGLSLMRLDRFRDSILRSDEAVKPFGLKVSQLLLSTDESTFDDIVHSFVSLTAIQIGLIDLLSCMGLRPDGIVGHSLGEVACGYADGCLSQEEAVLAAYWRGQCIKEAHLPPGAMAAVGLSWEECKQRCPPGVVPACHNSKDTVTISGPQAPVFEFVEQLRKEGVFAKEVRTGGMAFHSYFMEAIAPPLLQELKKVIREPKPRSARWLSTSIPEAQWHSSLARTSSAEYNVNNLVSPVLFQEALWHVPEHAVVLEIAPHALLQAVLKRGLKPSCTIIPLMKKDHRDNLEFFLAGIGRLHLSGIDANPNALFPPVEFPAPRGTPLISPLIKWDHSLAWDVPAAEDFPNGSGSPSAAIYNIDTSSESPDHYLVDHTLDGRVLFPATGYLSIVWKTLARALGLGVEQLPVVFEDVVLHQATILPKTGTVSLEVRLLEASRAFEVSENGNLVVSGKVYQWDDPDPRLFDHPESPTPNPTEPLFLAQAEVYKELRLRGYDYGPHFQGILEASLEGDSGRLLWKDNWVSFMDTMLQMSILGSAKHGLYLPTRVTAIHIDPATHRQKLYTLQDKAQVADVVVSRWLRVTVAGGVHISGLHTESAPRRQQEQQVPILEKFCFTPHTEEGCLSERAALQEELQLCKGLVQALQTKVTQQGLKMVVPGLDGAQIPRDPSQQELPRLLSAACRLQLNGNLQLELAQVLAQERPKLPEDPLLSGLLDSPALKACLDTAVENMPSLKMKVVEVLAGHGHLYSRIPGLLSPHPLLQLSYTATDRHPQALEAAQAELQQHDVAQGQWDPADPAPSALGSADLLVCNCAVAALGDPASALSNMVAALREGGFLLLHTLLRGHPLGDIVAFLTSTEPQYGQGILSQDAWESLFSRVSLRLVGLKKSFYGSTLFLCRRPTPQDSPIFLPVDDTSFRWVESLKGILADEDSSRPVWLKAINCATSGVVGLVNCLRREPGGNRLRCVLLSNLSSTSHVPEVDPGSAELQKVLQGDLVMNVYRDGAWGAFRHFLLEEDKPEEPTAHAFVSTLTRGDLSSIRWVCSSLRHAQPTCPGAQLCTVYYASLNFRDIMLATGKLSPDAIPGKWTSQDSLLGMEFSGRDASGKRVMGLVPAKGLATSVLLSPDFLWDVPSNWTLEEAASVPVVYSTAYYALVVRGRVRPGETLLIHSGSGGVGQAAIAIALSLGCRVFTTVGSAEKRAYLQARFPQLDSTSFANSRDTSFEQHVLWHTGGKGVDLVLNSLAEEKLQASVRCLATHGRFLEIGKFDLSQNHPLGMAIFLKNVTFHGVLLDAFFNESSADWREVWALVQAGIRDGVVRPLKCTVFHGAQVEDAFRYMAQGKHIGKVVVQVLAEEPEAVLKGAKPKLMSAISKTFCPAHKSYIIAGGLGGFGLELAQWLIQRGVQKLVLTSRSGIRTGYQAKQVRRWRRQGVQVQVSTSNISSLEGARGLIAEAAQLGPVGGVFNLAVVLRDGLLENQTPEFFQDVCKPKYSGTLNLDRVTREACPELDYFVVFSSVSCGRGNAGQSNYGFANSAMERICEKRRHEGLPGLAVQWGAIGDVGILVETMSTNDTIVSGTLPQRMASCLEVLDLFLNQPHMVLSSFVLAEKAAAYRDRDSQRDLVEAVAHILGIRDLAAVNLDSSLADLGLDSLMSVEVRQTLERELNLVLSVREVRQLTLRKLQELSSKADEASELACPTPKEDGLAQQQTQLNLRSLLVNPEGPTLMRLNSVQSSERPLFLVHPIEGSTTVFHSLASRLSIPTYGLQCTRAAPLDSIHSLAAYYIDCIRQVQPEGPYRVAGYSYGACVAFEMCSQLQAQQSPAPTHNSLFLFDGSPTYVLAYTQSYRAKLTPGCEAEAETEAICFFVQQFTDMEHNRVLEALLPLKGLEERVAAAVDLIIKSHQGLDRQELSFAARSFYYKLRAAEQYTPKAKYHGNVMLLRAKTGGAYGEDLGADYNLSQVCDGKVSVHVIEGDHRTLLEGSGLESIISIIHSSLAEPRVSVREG

Row | SMILES | IC50
1 | CCc1nc2c(OCc3ccc(Cl)cc3)cccn2c1N(C=O)Cc1ccccc1 | 6.9 µM (active)
2 | C/C=C/C=N/NC(=O)CN(c1ccc(Br)cc1)S(=O)(=O)c1ccccc1 | 10.6 µM (active)

Tested on: not listed separately
Assay: ZM109 Env clade C HIV-1 fusion inhibitors, dose response, HeLa effector, CEM target cells, luciferase, cherry-pick (AID 652058)
Assay type: functional, cell-based

Row | SMILES | AC50
3 | COc1ccc(C(=O)C(C)N(C(=O)c2ccc(Cl)cc2Cl)N2C(=O)C3C4C=CC(C4)C3C2=O)cc1 (stereo unspecified) | 2.82 µM (active)
4 | CC[C@@]12C(=O)N(c3ccccc3)C(=O)N1[C@H](c1ccc(OC)cc1)[C@@H]1C(=O)N(C(C)(C)C)C(=O)[C@@H]12 | 1.67 µM (active)
5 | COc1ccc(-c2nnn(CC(=O)N(Cc3cccs3)C(C)C(=O)NC3CCCC3)n2)cc1OC (stereo unspecified) | 9.35 µM (active)
6 | O=C1NCCN(Cc2cccc(Oc3ccccc3)c2)C1CC(=O)N1CCCCC1 (stereo unspecified) | 10.9 µM (active)
7 | Cc1ccc(C(C(=O)NC2CCCCC2)N(C(=O)c2csnn2)C2CCCC2)o1 (stereo unspecified) | 3.63 µM (active)
8 | C[C@@]12CC(=O)NC1N(C(=O)c1cccc(C(F)(F)F)c1)C(c1ccccc1O)C2 (stereo partly specified) | 7.54 µM (active)

Tested on: not listed separately
Assay: off-target signal loss in HeLa-CEM21 co-culture – HeLa F-luc CTL cells, cherry-picked, counter-screen for HIV-1 Env fusion inhibitor project, dose response (AID 652040);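 further: potency for signal decrease marking cytotoxic or nonspecific inhibition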
Assay type: functional, cell-based

Row | SMILES | AC50
9 | COc1ccc(C(=O)C(C)N(C(=O)c2ccc(Cl)cc2Cl)N2C(=O)C3C4C=CC(C4)C3C2=O)cc1 (stereo unspecified) | 4.93 µM (active)
10 | CC[C@@]12C(=O)N(c3ccccc3)C(=O)N1[C@H](c1ccc(OC)cc1)[C@@H]1C(=O)N(C(C)(C)C)C(=O)[C@@H]12 | 2.68 µM (active)
11 | COc1ccc(-c2nnn(CC(=O)N(Cc3cccs3)C(C)C(=O)NC3CCCC3)n2)cc1OC (stereo unspecified) | 24.8 µM (active)
12 | O=C1NCCN(Cc2cccc(Oc3ccccc3)c2)C1CC(=O)N1CCCCC1 (stereo unspecified) | 11.1 µM (active)
13 | Cc1ccc(C(C(=O)NC2CCCCC2)N(C(=O)c2csnn2)C2CCCC2)o1 (stereo unspecified) | 13.5 µM (active)
14 | O=C(Cn1ncc2c(=O)oc3ccccc3c21)N1CCC(N2CCCCC2)CC1 | 38.2 µM (active)
15 | C[C@@]12CC(=O)NC1N(C(=O)c1cccc(C(F)(F)F)c1)C(c1ccccc1O)C2 (stereo partly specified) | 7.18 µM (active)

Target: T2, Calpain-2 catalytic subunit (Sus scrofa, UniProt P43367)
T2 sequence (P43367 whole entry): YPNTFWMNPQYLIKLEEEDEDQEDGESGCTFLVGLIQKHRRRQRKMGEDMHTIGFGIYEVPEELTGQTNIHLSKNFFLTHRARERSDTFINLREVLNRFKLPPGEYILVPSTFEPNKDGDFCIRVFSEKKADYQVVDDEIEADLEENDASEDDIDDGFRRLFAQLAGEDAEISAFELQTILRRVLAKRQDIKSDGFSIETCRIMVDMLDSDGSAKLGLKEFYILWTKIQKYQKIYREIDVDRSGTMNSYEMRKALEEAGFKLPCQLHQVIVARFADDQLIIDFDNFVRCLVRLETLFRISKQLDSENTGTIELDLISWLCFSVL
Assay: pig calpain II inhibitor potency, dose response, biochemical, fluorogenic peptide substrate (AID 1420)
Assay type: functional

Row | SMILES | IC50
16 | CCN1/C(=C\C=C2\C(=O)N(c3ccccc3)C(=S)N2C)Sc2ccccc21 | > 50 µM (not active)
17 | CC(C)=CC1C(C(=O)Nc2ccc(Br)cn2)C1(C)C (stereo unspecified) | 6.34 µM (not active)

Tested on: not listed separately
Assay: inhibitors of firefly luciferase expression or activity, dose response, H4 neuroglioma cells, luminescence (AID 1990)
Assay type: functional, cell-based

Row | SMILES | EC50
18 | COc1ccc(C(=O)C(C)N(C(=O)c2ccc(Cl)cc2Cl)N2C(=O)C3C4C=CC(C4)C3C2=O)cc1 (stereo unspecified) | 16.7 µM (active)

Tested on: not listed separately
Assay: inhibitors of HIV Env-driven cell fusion, dose response, cherry-pick (AID 652057)
Assay type: functional, cell-based

Row | SMILES | AC50
19 | COc1ccc(C(=O)C(C)N(C(=O)c2ccc(Cl)cc2Cl)N2C(=O)C3C4C=CC(C4)C3C2=O)cc1 (stereo unspecified) | 2.94 µM (active)
20 | CC[C@@]12C(=O)N(c3ccccc3)C(=O)N1[C@H](c1ccc(OC)cc1)[C@@H]1C(=O)N(C(C)(C)C)C(=O)[C@@H]12 | 1.22 µM (active)
21 | COc1ccc(-c2nnn(CC(=O)N(Cc3cccs3)C(C)C(=O)NC3CCCC3)n2)cc1OC (stereo unspecified) | 5.2 µM (active)
22 | O=C1NCCN(Cc2cccc(Oc3ccccc3)c2)C1CC(=O)N1CCCCC1 (stereo unspecified) | 3.76 µM (active)
23 | Cc1ccc(C(C(=O)NC2CCCCC2)N(C(=O)c2csnn2)C2CCCC2)o1 (stereo unspecified) | 14.1 µM (active)
24 | C[C@@]12CC(=O)NC1N(C(=O)c1cccc(C(F)(F)F)c1)C(c1ccccc1O)C2 (stereo partly specified) | 3.74 µM (active)

Target: T1, Fatty acid synthase
Assay: FAS thioesterase domain inhibitors, dose response, biochemical, kinetic fluorescence intensity (AID 624326);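 further: rate of fluorescence rise from hydrolysis of a fluorogenic O-methyl fluorescein ester substrate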
Assay type: functional

Row | SMILES | IC50
25 | CCc1nc2c(OCc3ccc(Cl)cc3)cccn2c1N(C=O)Cc1ccccc1 | 3.71 µM (active)
26 | C/C=C/C=N/NC(=O)CN(c1ccc(Br)cc1)S(=O)(=O)c1ccccc1 | 10.1 µM (active)

Tested on: not listed separately
Assay: inhibitors of SNCA 5'UTR-driven reporter translation, confirmation, H4 neuroglioma cells, luminescence (AID 1988)
Assay type: functional, cell-based

Row | SMILES | EC50
27 | COc1ccc(C(=O)C(C)N(C(=O)c2ccc(Cl)cc2Cl)N2C(=O)C3C4C=CC(C4)C3C2=O)cc1 (stereo unspecified) | > 120 µM (not active)

Tested on: not listed separately
Assay: THP-1 cell cytotoxicity, dose response, cytotoxicity control for non-replicating M. tuberculosis project (AID 489025)
Assay type: functional

Row | SMILES | CC50
28 | CC(C)=CC1C(C(=O)Nc2ccc(Br)cn2)C1(C)C (stereo unspecified) | > 40 µM (active)

Tested on: not listed separately
Assay: inhibitors of clade B AD8 Env fusion, dose response, cell-based, cherry-pick (AID 652062);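 further: luciferase signal from cell-cell fusion driven by HIV-1 clade B AD8 Env; potency is for inhibitors of fusion seen as a drop in luminescence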
Assay type: functional

Row | SMILES | AC50
29 | COc1ccc(C(=O)C(C)N(C(=O)c2ccc(Cl)cc2Cl)N2C(=O)C3C4C=CC(C4)C3C2=O)cc1 (stereo unspecified) | 13.1 µM (active)
30 | CC[C@@]12C(=O)N(c3ccccc3)C(=O)N1[C@H](c1ccc(OC)cc1)[C@@H]1C(=O)N(C(C)(C)C)C(=O)[C@@H]12 | 3.89 µM (active)
31 | COc1ccc(-c2nnn(CC(=O)N(Cc3cccs3)C(C)C(=O)NC3CCCC3)n2)cc1OC (stereo unspecified) | 10.1 µM (active)
32 | O=C1NCCN(Cc2cccc(Oc3ccccc3)c2)C1CC(=O)N1CCCCC1 (stereo unspecified) | 8.77 µM (active)
33 | Cc1ccc(C(C(=O)NC2CCCCC2)N(C(=O)c2csnn2)C2CCCC2)o1 (stereo unspecified) | 6.08 µM (active)
34 | O=C(Cn1ncc2c(=O)oc3ccccc3c21)N1CCC(N2CCCCC2)CC1 | 2.31 µM (active)
35 | C[C@@]12CC(=O)NC1N(C(=O)c1cccc(C(F)(F)F)c1)C(c1ccccc1O)C2 (stereo partly specified) | 26.7 µM (active)

Target: T3, Leucine aminopeptidase (Plasmodium falciparum 3D7, UniProt Q8IL11)
T3 sequence (Q8IL11 whole entry): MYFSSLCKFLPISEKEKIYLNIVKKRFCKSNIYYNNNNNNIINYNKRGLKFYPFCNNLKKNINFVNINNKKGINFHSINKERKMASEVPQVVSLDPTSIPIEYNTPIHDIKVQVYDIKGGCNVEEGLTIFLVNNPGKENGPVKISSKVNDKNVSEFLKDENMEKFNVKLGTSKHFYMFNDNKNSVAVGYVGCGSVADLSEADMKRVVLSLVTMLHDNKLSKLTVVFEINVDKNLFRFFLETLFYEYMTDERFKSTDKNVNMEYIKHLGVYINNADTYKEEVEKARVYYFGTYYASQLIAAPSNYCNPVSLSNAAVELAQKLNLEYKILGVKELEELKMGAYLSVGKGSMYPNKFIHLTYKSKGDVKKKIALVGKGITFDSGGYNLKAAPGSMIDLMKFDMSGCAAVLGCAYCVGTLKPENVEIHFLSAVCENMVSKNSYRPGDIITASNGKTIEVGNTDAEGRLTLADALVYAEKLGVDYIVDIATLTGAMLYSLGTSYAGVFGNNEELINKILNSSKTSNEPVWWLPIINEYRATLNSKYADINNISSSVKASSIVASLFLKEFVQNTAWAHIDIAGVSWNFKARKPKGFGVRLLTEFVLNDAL
Assay: P. falciparum M17LAP inhibitors, primary screen, biochemical, fluorogenic H-Leu-NHMec substrate, 1536-well (AID 1619)
Assay type: functional

Row | SMILES | IC50
36 | CCC1(C)Cc2sc3c(=O)[nH]c(=S)[nH]c3c2CO1 (stereo unspecified) | 29.3 µM (active)
37 | CCOc1ccc(Nc2nnc(S)s2)cc1 | < 1 µM (active)
38 | Nc1[nH]nc2nc(N3CCCC3)nc(-c3ccccc3)c12 | 33.7 µM (active)
39 | O=C(O)c1cnn2cc(-c3n[nH]cc3[N+](=O)[O-])cnc12 | 13.3 µM (active)
40 | CCCOc1ccc(N2C(=O)CC(SCCN)C2=O)cc1 (stereo unspecified) | 12 µM (active)
41 | Cc1noc(NS(=O)(=O)c2ccc(NC(=O)Nc3ccc(Cl)c(Cl)c3)cc2)c1C | 9.03 µM (active)
42 | O=C(CN1C(=O)C2C3C=CC(C3)C2C1=O)NCC1COc2ccccc2O1 (stereo unspecified) | 2.19 µM (active)
43 | CN1C2CCC1/C(=C/c1cccn1C)C(=O)/C2=C\c1cccn1C | 51.9 µM (active)
44 | COc1cccc(N/N=C(\C#N)S(=O)(=O)C(C)(C)C)c1 | 26.7 µM (active)
45 | CC1=NNC(=O)C1CCC(=O)N/N=C\c1cccc(Cl)c1 (stereo unspecified) | 20.9 µM (active)

Target: T4, Rac GTPase-activating protein 1 (Homo sapiens, UniProt Q9H0H5)
T4 sequence (Q9H0H5 whole entry): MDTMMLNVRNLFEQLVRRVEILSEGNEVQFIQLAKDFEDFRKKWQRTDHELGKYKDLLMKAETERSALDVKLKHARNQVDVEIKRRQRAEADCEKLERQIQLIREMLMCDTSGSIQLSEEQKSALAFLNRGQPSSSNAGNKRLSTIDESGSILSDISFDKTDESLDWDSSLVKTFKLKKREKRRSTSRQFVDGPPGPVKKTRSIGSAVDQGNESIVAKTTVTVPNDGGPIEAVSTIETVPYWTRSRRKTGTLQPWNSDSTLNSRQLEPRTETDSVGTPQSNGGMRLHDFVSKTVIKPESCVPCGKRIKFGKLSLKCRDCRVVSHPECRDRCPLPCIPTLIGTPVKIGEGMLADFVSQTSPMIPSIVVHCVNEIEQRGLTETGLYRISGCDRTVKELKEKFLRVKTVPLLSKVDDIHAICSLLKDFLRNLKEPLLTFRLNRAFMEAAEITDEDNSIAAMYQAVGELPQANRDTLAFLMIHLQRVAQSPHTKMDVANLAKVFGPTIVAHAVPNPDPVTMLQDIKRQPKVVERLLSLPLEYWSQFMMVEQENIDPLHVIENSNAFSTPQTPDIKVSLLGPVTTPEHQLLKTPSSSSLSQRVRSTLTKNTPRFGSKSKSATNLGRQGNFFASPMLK
Assay: MgcRacGAP GTPase-activating activity inhibitors, confirmation, biochemical, ADP Hunter fluorescence, primary and confirmatory (AID 624330)
Assay type: functional

Row | SMILES | IC50
46 | CCOc1ccc(Nc2nnc(S)s2)cc1 | 54.8 µM (active)
